In article PMC6934184, “Selective DNA-PKcs inhibition extends the therapeutic index of localized radiotherapy and chemotherapy” (The Journal of Clinical Investigation, 2019):

Target: T1, JAK2 JH1 JH2 V617F (Homo sapiens, UniProt O60674, V617F)
T1 construct: JAK2 JH1 JH2 V617F; purchased Thermo Fisher Scientific (Life Technologies) SelectScreen
Experiment: SelectScreen Z'LYTE
Type: biochemical
How it was run: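 NU5455 was profiled across the SelectScreen Broad panel of kinase activity and binding assays. Z'LYTE reactions such as CSF1R ran at apparent Km ATP, while the Adapta CAMK1 assay used ATP listed as 10. Values are given as percent.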

T1 sequence (O60674 532-1132 V617F limits assumed): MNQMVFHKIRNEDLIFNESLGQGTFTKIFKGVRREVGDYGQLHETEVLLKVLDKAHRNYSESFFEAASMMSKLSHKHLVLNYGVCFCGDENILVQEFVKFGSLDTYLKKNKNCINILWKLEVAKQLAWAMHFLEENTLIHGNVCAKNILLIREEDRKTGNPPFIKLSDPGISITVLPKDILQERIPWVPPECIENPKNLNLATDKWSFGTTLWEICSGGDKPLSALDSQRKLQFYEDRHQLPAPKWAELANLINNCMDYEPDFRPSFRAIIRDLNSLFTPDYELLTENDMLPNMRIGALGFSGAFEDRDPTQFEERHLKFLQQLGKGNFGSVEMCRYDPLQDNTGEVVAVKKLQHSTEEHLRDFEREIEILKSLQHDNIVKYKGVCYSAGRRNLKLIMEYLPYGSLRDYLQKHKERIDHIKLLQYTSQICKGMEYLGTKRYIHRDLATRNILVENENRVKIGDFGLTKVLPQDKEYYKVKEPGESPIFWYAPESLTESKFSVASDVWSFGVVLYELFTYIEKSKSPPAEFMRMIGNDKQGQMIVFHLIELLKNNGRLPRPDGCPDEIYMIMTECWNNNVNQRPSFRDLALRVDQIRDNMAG

CN(C(=O)CN1CCOCC1)c1ccc2sc3c(-c4cccc5c(=O)cc(N6CC7CCC(C6)O7)oc45)cccc3c2c1 [NU5455]
inhibition at 1 µM: -13.8%
